Assay results as given in PubChem BioAssay AID1963837 (Molecular Pharmacology Branch, DTP, NCI, 2024).

System: 843126-344-R-J1-PDC complex spheroid viability
Assay: Anticancer human tumor 843126-344-R-J1-PDC patient-derived melanoma cell line growth inhibition [POLQ]
Conditions: for IC50: curve of first compound; for viability, T/C: stronger effect = lower value
How it was run: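 PDC + HUVEC + MSC complex spheroids; POLQ inhibitors ± partner drugs; top conc. at/near clinical Cmax, else 10 microM (SN-38 1 microM), half-log dilutions; 37 degrees C, 5% CO2.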

[1] = second compound 0.0316 µM, first compound 0.0316 µM
[2] = second compound 0.0316 µM, first compound 0.1 µM
[3] = second compound 0.0316 µM, first compound 0.316 µM
[4] = second compound 0.0316 µM, first compound 1 µM
[5] = second compound 0.0316 µM, first compound 3.16 µM
[6] = second compound 0.0316 µM, first compound 10 µM
[7] = second compound 0.1 µM, first compound 0.0316 µM
[8] = second compound 0.1 µM, first compound 0.1 µM
[9] = second compound 0.1 µM, first compound 0.316 µM
[10] = second compound 0.1 µM, first compound 1 µM
[11] = second compound 0.1 µM, first compound 3.16 µM
[12] = second compound 0.1 µM, first compound 10 µM
[13] = second compound 0.316 µM, first compound 0.0316 µM
[14] = second compound 0.316 µM, first compound 0.1 µM
[15] = second compound 0.316 µM, first compound 0.316 µM
[16] = second compound 0.316 µM, first compound 1 µM
[17] = second compound 0.316 µM, first compound 3.16 µM
[18] = second compound 0.316 µM, first compound 10 µM
[19] = second compound 1 µM, first compound 0.0316 µM
[20] = second compound 1 µM, first compound 0.1 µM
[21] = second compound 1 µM, first compound 0.316 µM
[22] = second compound 1 µM, first compound 1 µM
[23] = second compound 1 µM, first compound 3.16 µM
[24] = second compound 1 µM, first compound 10 µM
[25] = second compound 3.16 µM, first compound 0.0316 µM
[26] = second compound 3.16 µM, first compound 0.1 µM
[27] = second compound 3.16 µM, first compound 0.316 µM
[28] = second compound 3.16 µM, first compound 1 µM
[29] = second compound 3.16 µM, first compound 3.16 µM
[30] = second compound 3.16 µM, first compound 10 µM
[31] = second compound 10 µM, first compound 0.0316 µM
[32] = second compound 10 µM, first compound 0.1 µM
[33] = second compound 10 µM, first compound 0.316 µM
[34] = second compound 10 µM, first compound 1 µM
[35] = second compound 10 µM, first compound 3.16 µM
[36] = second compound 10 µM, first compound 10 µM
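Throughout, for viability, T/C: spheroids exposed to drugs for seven days before readout.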

CCc1cc2c(N3CCc4c(cc(Cn5ccnc5)cc4-c4cn(C)nc4C(F)(F)F)C3=O)cc(C)nc2c(OC)n1 + Nc1ccc(C#CCN(C(=O)Cc2ncc(C(F)(F)F)cc2C(F)(F)F)c2ccc(F)cc2)nn1
IC50 (second compound 0.0316 µM): > 10 µM | IC50 (second compound 0.1 µM): > 10 µM | IC50 (second compound 0.316 µM): > 10 µM | IC50 (second compound 1 µM): > 10 µM | IC50 (second compound 3.16 µM): > 10 µM | IC50 (second compound 10 µM): > 10 µM | viability, T/C [1]: 96.9% | viability, T/C [2]: 95.3% | viability, T/C [3]: 82% | viability, T/C [4]: 80.7% | viability, T/C [5]: 73.2% | viability, T/C [6]: 58.8% | viability, T/C [7]: 97.5% | viability, T/C [8]: 99.5% | viability, T/C [9]: 89.1% | viability, T/C [10]: 82% | viability, T/C [11]: 79.7% | viability, T/C [12]: 58.2% | viability, T/C [13]: 87.5% | viability, T/C [14]: 97.4% | viability, T/C [15]: 77.6% | viability, T/C [16]: 84.6% | viability, T/C [17]: 76.8% | viability, T/C [18]: 66.7% | viability, T/C [19]: 104% | viability, T/C [20]: 94% | viability, T/C [21]: 80.3% | viability, T/C [22]: 81.7% | viability, T/C [23]: 68.6% | viability, T/C [24]: 58.8% | viability, T/C [25]: 90.6% | viability, T/C [26]: 85.9% | viability, T/C [27]: 93.4% | viability, T/C [28]: 74.8% | viability, T/C [29]: 66.2% | viability, T/C [30]: 64% | viability, T/C [31]: 83.3% | viability, T/C [32]: 89.6% | viability, T/C [33]: 75.8% | viability, T/C [34]: 81.5% | viability, T/C [35]: 73.3% | viability, T/C [36]: 59.4%

CCc1cc2c(N3CCc4c(cc(Cn5ccnc5)cc4-c4cn(C)nc4C(F)(F)F)C3=O)ccnc2c(OC)n1 + Nc1ccc(C#CCN(C(=O)Cc2ncc(C(F)(F)F)cc2C(F)(F)F)c2ccc(F)cc2)nn1
IC50 (second compound 0.0316 µM): > 10 µM | IC50 (second compound 0.1 µM): > 10 µM | IC50 (second compound 0.316 µM): > 10 µM | IC50 (second compound 1 µM): > 10 µM | IC50 (second compound 3.16 µM): > 10 µM | IC50 (second compound 10 µM): > 10 µM | viability, T/C [1]: 91.6% | viability, T/C [2]: 90.2% | viability, T/C [3]: 82% | viability, T/C [4]: 86.8% | viability, T/C [5]: 64.7% | viability, T/C [6]: 61.6% | viability, T/C [7]: 107% | viability, T/C [8]: 100% | viability, T/C [9]: 81.5% | viability, T/C [10]: 77.1% | viability, T/C [11]: 88% | viability, T/C [12]: 61.6% | viability, T/C [13]: 101% | viability, T/C [14]: 100% | viability, T/C [15]: 96.6% | viability, T/C [16]: 82.3% | viability, T/C [17]: 72.9% | viability, T/C [18]: 61.5% | viability, T/C [19]: 96.6% | viability, T/C [20]: 99.3% | viability, T/C [21]: 94.4% | viability, T/C [22]: 72.2% | viability, T/C [23]: 88.4% | viability, T/C [24]: 58.2% | viability, T/C [25]: 94.5% | viability, T/C [26]: 90.9% | viability, T/C [27]: 96.7% | viability, T/C [28]: 80.1% | viability, T/C [29]: 82.7% | viability, T/C [30]: 56.8% | viability, T/C [31]: 83% | viability, T/C [32]: 76.6% | viability, T/C [33]: 75.8% | viability, T/C [34]: 73.5% | viability, T/C [35]: 80.2% | viability, T/C [36]: 55.9%

COc1cc2cc(C(=O)CCC(=O)O)sc2cc1OC + Nc1ccc(C#CCN(C(=O)Cc2ncc(C(F)(F)F)cc2C(F)(F)F)c2ccc(F)cc2)nn1
IC50 (second compound 0.0316 µM): > 10 µM | IC50 (second compound 0.1 µM): > 10 µM | IC50 (second compound 0.316 µM): > 10 µM | IC50 (second compound 1 µM): > 10 µM | IC50 (second compound 3.16 µM): > 10 µM | IC50 (second compound 10 µM): > 10 µM | viability, T/C [1]: 84.1% | viability, T/C [2]: 82.5% | viability, T/C [3]: 81.6% | viability, T/C [4]: 99.8% | viability, T/C [5]: 90.2% | viability, T/C [6]: 89.2% | viability, T/C [7]: 77.8% | viability, T/C [8]: 103% | viability, T/C [9]: 92% | viability, T/C [10]: 102% | viability, T/C [11]: 89.9% | viability, T/C [12]: 107% | viability, T/C [13]: 96.1% | viability, T/C [14]: 94.2% | viability, T/C [15]: 104% | viability, T/C [16]: 96.7% | viability, T/C [17]: 108% | viability, T/C [18]: 82.3% | viability, T/C [19]: 96.7% | viability, T/C [20]: 77.7% | viability, T/C [21]: 93.8% | viability, T/C [22]: 83.2% | viability, T/C [23]: 90.1% | viability, T/C [24]: 76.8% | viability, T/C [25]: 96.9% | viability, T/C [26]: 83.7% | viability, T/C [27]: 89.1% | viability, T/C [28]: 86% | viability, T/C [29]: 94.7% | viability, T/C [30]: 91% | viability, T/C [31]: 77.2% | viability, T/C [32]: 84.3% | viability, T/C [33]: 92.2% | viability, T/C [34]: 79.1% | viability, T/C [35]: 92.7% | viability, T/C [36]: 94.1%

COc1ccc([C@@H](O)c2cc(-c3ncnc4cc(N5CCOCC5)ccc34)c(F)cc2Cl)nn1 + Nc1ccc(C#CCN(C(=O)Cc2ncc(C(F)(F)F)cc2C(F)(F)F)c2ccc(F)cc2)nn1
IC50 (second compound 0.0316 µM): > 10 µM | IC50 (second compound 0.1 µM): > 10 µM | IC50 (second compound 0.316 µM): > 10 µM | IC50 (second compound 1 µM): > 10 µM | IC50 (second compound 3.16 µM): > 10 µM | IC50 (second compound 10 µM): > 10 µM | viability, T/C [1]: 95.5% | viability, T/C [2]: 94.9% | viability, T/C [3]: 87.5% | viability, T/C [4]: 87.9% | viability, T/C [5]: 80.9% | viability, T/C [6]: 62.9% | viability, T/C [7]: 95.7% | viability, T/C [8]: 95.8% | viability, T/C [9]: 103% | viability, T/C [10]: 82.9% | viability, T/C [11]: 96% | viability, T/C [12]: 68.1% | viability, T/C [13]: 86% | viability, T/C [14]: 90.3% | viability, T/C [15]: 87% | viability, T/C [16]: 85.1% | viability, T/C [17]: 79.5% | viability, T/C [18]: 80.7% | viability, T/C [19]: 88.1% | viability, T/C [20]: 102% | viability, T/C [21]: 91.8% | viability, T/C [22]: 88.5% | viability, T/C [23]: 74.5% | viability, T/C [24]: 64% | viability, T/C [25]: 100% | viability, T/C [26]: 99.3% | viability, T/C [27]: 92% | viability, T/C [28]: 73.6% | viability, T/C [29]: 77.8% | viability, T/C [30]: 64.6% | viability, T/C [31]: 80.2% | viability, T/C [32]: 94.8% | viability, T/C [33]: 85.4% | viability, T/C [34]: 82.7% | viability, T/C [35]: 78.2% | viability, T/C [36]: 62.6%
